Test results published in US20220387304A1, “MULTI-LAYERED NANOPARTICLE COATED SUBSTRATES FOR DRUG DELIVERY” (The UAB Research Foundation, priority 2019, published 2022).
Read-outs that look alike come from different tables or passages of the source.

Experiments:
Interleukin-8 (IL-8) = assay: LPS-induced IL-8 secretion from HSNEC (ELISA); assay type: cell-based, human; details: n=3
From the text: (§1) Primary HSNECs were collected with prior approval of the Institutional Review Board at University of Alabama at Birmingham (UAB) (IRB-120305017). Written informed consent from each participant was collected and subjects were screened and negative for a mutation in the cystic fibrosis transmembrane conductance regulator gene. Primary HSNECs were derived from turbinate mucosa from 3 healthy donors undergoing surgery for non-inflammatory conditions and cultured on collagen-coated Costar 6.5-mm-diameter permeable filter supports (Corning, Lowell, Mass.) submerged in established culture media. Differentiation and ciliogenesis occurred in all cultures within 10 to 14 days.^17-26 Matured HSNECs with resistance over 300 Ω/cm^2 and 80% field ciliogenesis by inverted microscopy were subjected to experiments.
After the incubation period, the basal media (600 μL) were collected and measured for IL-8 concentration in each sample according to the manufacture's protocol (R&D systems, Minneapolis, Minn.). The secreted IL-8 concentration in each sample was evaluated by measuring the absorbance at 450 nm using a microplate reader (Synergy HK, BIO-TEK Instruments, Winooski, Vt.). All samples were performed in triplicate.
To evaluate the anti-inflammatory effects of azithromycin on HSNEC, cells were stimulated with 25 μg/ml of P. aeruginosa lipopolysaccharide (LPS) for 2 hours, and treated with incremental azithromycin concentrations (6, 60, and 180 μg/ml) (FIG. 13). After a 24-hour incubation period, the basolateral media was harvested and secreted IL-8 was measured.

HSNECs [1] = details: human, 30 μg/ml
From the text: as §1

HSNECs [2] = assay: Paracellular permeability of FITC dextran across HSNECs; assay type: cell-based, human; details: for average paracellular permeability of dextran particles: human
Procedure: The diffusion-barrier of […] is determined by a tight epithelial barrier and tight junction formation and is impacted by a number of chemicals. […] The permeated concentrations of FITC dextran were quantified by a fluorescence microplate reader.

HSNECs [3] = assay: Ciliary beat frequency analysis; assay type: cell-based, human
Procedure: After applying 100 μL of sterilized PBS as control or PBS containing drug to the apical surface of the cells, the motion images were acquired for 30 minutes. Under each condition, image acquisition was performed using a Basler area scan high-speed monochromatic digital video camera (Basler AG, Ahrensburg, Germany) at a sampling rate of 100 frames per second. The Sisson-Ammons Video Analysis (SAVA) system was used to acquire CBF. Baseline CBF recording was conducted in the previously described manner, and each analysis of CBF was normalized to fold-change over baseline CBF Hz (treatment/baseline).^28

HSNECs [4] = assay: HSNEC viability LDH assay; assay type: cell-based, human
From the text: Concentration gradients generated from internal standards (with positive controls) provided by the manufacturer render a theoretical kit detection range in biological samples containing IL-8. […] Louis, Mo.). […] The resulting formazan absorbs maximally at 492 nm and can be measured quantitatively at 490 nm. Total LDH in each sample was expressed as ng/ml.

Row | normalized TEER (HSNECs [1]; 3 h) | normalized TEER (HSNECs [1]; 6 h) | average paracellular permeability of dextran particles (HSNECs [2]; 3 h) | average paracellular permeability of dextran particles (HSNECs [2]; 6 h) | SMILES | secreted IL-8 (Interleukin-8 (IL-8); azithromycin 6 μg/ml, 25 μg/ml LPS 2 hours, 24-hour incubation) [ng/mL] | secreted IL-8 (Interleukin-8 (IL-8); azithromycin 60 μg/ml, 25 μg/ml LPS 2 hours, 24-hour incubation) [ng/mL] | secreted IL-8 (Interleukin-8 (IL-8); azithromycin 180 μg/ml, 25 μg/ml LPS 2 hours, 24-hour incubation) [ng/mL] | paracellular permeability of HSNECs over time (HSNECs [2]) | ciliary beat frequency (HSNECs [3]) | cellular viability of HSNECs, LDH (HSNECs [4]) | secreted IL-8 (Interleukin-8 (IL-8); ciprofloxacin 2.4 μg/ml alone with LPS exposure) [ng/mL]
1 | 1.14+/−0.06 Ω/cm^2 | 1.02+/−0.37 Ω/cm^2 | 0.10+/−0.15% | 3.44+/−0.24% | CC[C@H]1OC(=O)[C@H](C)[C@@H](O[C@H]2C[C@@](C)(OC)[C@@H](O)[C@H](C)O2)[C@H](C)[C@@H](O[C@@H]2O[C@H](C)C[C@H](N(C)C)[C@H]2O)[C@](C)(O)C[C@@H](C)CN(C)[C@H](C)[C@@H](O)[C@]1(C)O [azithromycin] | 4.579 ± 0.399 | 4.312 ± 0.057 | 4.269 ± 0.258 | No alterations in average paracellular permeability | No significant difference in ciliary beat frequency | No detrimental effect on the cellular viability | –
2 | – | – | – | – | O=C(O)c1cn(C2CC2)c2cc(N3CCNCC3)c(F)cc2c1=O [ciprofloxacin] | – | – | – | – | No significant difference in ciliary beat frequency | No detrimental effect on the cellular viability | 6.40 ± 0.26
